According to BigSolDB 2.1:

CC1(C)[C@@H](O)CC[C@]2(C)[C@H]3C(=O)C=C4[C@@H]5C[C@@](C)(C(=O)O)CC[C@]5(C)CC[C@@]4(C)[C@]3(C)CC[C@@H]12
solubility (mole fraction)
Details	278.15 K	283.15 K	288.15 K	293.15 K	298.15 K	303.15 K	308.15 K	313.15 K	318.15 K	323.15 K
in 1,4-dioxane	–	–	0.0277	0.0286	0.0298	0.031	0.0323	0.0335	0.0348	0.0366
in DMF	0.0449	0.0478	0.051	0.0545	0.058	0.0615	0.0654	0.0692	0.0733	0.0777
in ethanol	0.0109	0.0115	0.0121	0.0128	0.0134	0.0141	0.0147	0.0155	0.0163	0.0172
in isopropanol	0.00911	0.00991	0.0108	0.0116	0.0124	0.0133	0.0142	0.0151	0.016	0.017
in water	8.02e-08	9.91e-08	1.22e-07	1.5e-07	1.82e-07	2.2e-07	2.61e-07	3.17e-07	3.76e-07	4.49e-07
